Results on 27 compounds are retold here after ChEMBL document CHEMBL4229444, “Design, synthesis and docking study of 4-arylpiperazine carboxamides as monoamine neurotransmitters reuptake inhibitors” (Bioorg Med Chem, 2018).

Common to all, as to assay type: cell-based
Assay [1] deals with Sodium-dependent serotonin transporter (Homo sapiens, UniProt P31645). Nature of the assay: Inhibition of human SERT expressed in HEK293 cells assessed as reduction in [3H]5-HT uptake by micro beta scintillation counting analysis.
Assay [2] deals with Sodium-dependent noradrenaline transporter (Homo sapiens, UniProt P23975). As to the kind of experiment: Inhibition of human NET expressed in HEK293 cells assessed as reduction in [3H]-NE uptake by micro beta scintillation counting analysis.
Assay [3] addresses Sodium-dependent dopamine transporter (Homo sapiens, UniProt Q01959). Nature of the assay: Inhibition of human DAT expressed in HEK293 cells assessed as reduction in [3H]-DA uptake by micro beta scintillation counting analysis.

Chain of Sodium-dependent serotonin transporter (P31645 whole entry): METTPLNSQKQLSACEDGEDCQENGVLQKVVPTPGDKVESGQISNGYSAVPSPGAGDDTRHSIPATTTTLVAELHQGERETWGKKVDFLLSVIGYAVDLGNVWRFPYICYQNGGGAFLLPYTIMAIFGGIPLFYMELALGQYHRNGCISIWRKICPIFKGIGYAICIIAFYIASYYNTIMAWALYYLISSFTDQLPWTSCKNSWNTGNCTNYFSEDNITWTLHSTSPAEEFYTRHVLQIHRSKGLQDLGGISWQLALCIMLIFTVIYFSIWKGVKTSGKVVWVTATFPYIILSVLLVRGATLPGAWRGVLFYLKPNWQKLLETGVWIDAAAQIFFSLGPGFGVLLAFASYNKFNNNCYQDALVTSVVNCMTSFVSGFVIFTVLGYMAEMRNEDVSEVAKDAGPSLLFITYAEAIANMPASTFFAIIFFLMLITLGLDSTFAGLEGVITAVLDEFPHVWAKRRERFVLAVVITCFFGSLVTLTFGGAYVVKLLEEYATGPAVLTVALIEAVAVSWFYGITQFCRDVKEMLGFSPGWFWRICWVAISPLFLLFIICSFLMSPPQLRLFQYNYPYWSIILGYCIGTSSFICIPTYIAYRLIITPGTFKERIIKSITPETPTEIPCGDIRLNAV
Chain of Sodium-dependent dopamine transporter (Q01959 whole entry): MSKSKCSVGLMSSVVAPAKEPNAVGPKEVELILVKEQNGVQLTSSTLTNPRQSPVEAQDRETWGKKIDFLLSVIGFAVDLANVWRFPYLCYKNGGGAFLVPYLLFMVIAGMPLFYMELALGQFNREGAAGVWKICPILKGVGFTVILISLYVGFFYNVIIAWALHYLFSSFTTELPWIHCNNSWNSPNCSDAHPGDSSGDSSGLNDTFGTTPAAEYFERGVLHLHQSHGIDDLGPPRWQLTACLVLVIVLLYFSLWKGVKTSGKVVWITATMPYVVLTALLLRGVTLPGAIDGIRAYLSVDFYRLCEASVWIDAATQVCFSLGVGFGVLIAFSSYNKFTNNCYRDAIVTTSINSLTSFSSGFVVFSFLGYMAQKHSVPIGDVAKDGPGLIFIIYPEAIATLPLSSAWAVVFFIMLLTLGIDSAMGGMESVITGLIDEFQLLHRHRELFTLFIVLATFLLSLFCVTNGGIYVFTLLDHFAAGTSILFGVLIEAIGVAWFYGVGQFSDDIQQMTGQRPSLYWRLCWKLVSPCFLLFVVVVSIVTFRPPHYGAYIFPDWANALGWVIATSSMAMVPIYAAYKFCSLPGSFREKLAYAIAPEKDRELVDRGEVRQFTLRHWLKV
Chain of Sodium-dependent noradrenaline transporter (P23975 whole entry): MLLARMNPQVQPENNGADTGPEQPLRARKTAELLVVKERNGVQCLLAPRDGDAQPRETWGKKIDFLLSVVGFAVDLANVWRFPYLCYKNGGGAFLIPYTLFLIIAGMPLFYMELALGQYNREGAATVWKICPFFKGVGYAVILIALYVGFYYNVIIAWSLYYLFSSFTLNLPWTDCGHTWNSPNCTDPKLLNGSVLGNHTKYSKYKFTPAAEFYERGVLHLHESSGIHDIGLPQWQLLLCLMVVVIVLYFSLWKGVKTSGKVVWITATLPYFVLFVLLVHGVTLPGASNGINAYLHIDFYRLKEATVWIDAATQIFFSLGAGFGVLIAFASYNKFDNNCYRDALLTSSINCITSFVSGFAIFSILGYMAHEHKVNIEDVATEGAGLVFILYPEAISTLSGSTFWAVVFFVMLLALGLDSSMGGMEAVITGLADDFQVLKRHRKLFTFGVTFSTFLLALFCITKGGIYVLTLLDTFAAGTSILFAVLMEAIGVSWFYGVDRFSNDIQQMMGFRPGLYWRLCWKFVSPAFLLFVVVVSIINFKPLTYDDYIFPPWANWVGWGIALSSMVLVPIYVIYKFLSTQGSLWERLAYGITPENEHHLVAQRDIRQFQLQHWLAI

For the compound `O=C(NCCCN1CCN(c2ccccn2)CC1)c1cc(Cl)cc(Cl)c1`, the IC50 in assay [1] was > 10000 nM; in assay [2] it was > 10 µM; in assay [3], > 10 µM.
In the case of `COc1ccccc1N1CCN(CCCNC(=O)c2ccc(-c3ccccc3)cc2)CC1`, the figures for the IC50 in assay [1] and in assay [2] were 4460 nM and 4.96 µM, respectively.
Consider `Cc1ccc(N2CCN(CCCNC(=O)c3ccc4ccccc4n3)CC2)cc1`, for which the IC50 is 230 nM in assay [1] and > 10 µM in assay [2].
`COc1ccc(N2CCN(CCCNC(=O)c3ccc4ccccc4n3)CC2)cc1`: the IC50 in assay [1] turned out to be 230 nM; in assay [2], 6.07 µM.
In the case of `O=C(NCCCN1CCN(c2cccc(Cl)c2Cl)CC1)c1cc2ccccc2o1`, the IC50 is > 10000 nM in assay [1] and > 10 µM in assay [2].
In the same order, the values of `O=C(NCCCN1CCN(c2ccc(Cl)cc2Cl)CC1)c1ccc2ccccc2n1` are 6850 nM and > 10 µM.
As for `O=C(NCCCN1CCN(c2ccccn2)CC1)c1ccc2ccccc2c1`, the IC50 in assay [1] was 9640 nM; in assay [2] it was > 10 µM; in assay [3] it was > 10 µM.
On to `O=C(NCCCN1CCN(c2cccc(Cl)c2Cl)CC1)c1cccc2ccccc12`, for which the IC50 in assay [1] was 4270 nM; in assay [2], > 10 µM; in assay [3], > 10 µM.
Consider `O=C(NCCCN1CCN(c2ccccn2)CC1)c1ccc2ccccc2n1`, for which the IC50 in assay [1] was 6940 nM; in assay [2] it was > 10 µM; in assay [3], > 10 µM.
In the case of `O=C(NCCCN1CCN(c2cccc(Cl)c2Cl)CC1)c1cc(Cl)cc(Cl)c1`, the results for the IC50 in assay [1], in assay [2] and in assay [3] were > 10000 nM, > 10 µM and > 10 µM, respectively.
For `O=C(NCCCN1CCN(c2ncccn2)CC1)c1cc(Cl)cc(Cl)c1`, the figures for the IC50 in assay [1], in assay [2] and in assay [3] were > 10000 nM, > 10 µM and > 10 µM, respectively.
Consider `O=C(NCCCN1CCN(c2ccc(Cl)cc2)CC1)c1cc2ccccc2s1`, for which the results for the IC50 in assay [1] and in assay [2] were 550 nM and 1.34 µM, respectively.
Regarding `O=C(NCCCN1CCN(c2ccc(C(F)(F)F)cc2)CC1)c1cc2ccccc2o1`, the IC50 in assay [1] is 741 nM; in assay [2], > 10 µM.
`O=C(NCCCN1CCN(c2cccc(Cl)c2Cl)CC1)c1cc2ccccc2s1`: the IC50 in assay [1] was 400 nM; in assay [2], 3.66 µM.
Turning to `O=C(NCCCN1CCN(c2cccc(Cl)c2Cl)CC1)c1ccc(-c2ccccc2)cc1`, the IC50 worked out at 1010 nM in assay [1] and 3.15 µM in assay [2].
As for `O=C(NCCCN1CCN(c2ccc(Cl)cc2)CC1)c1ccc2ccccc2c1`, the IC50 in assay [1] is 280 nM; in assay [2], > 10 µM.
For the compound `O=C(NCCCN1CCN(c2ccc(Cl)c(Cl)c2)CC1)c1ccc2ccccc2n1`, the IC50 was 273 nM in assay [1] and > 10 µM in assay [2].
In the case of `O=C(NCCCN1CCN(c2ncccn2)CC1)c1ccc2ccccc2n1`, the concentration for half-maximal inhibition (IC50) is > 10000 nM in assay [1], > 10 µM in assay [2] and > 10 µM in assay [3].
As to `O=C(NCCCN1CCN(c2ncccn2)CC1)c1cccc2ccccc12`, the results for the IC50 in assay [1], in assay [2] and in assay [3] were > 10000 nM, > 10 µM and > 10 µM, respectively.
With `O=C(NCCCN1CCN(c2ccccn2)CC1)c1cccc2ccccc12`, the IC50 was > 10000 nM in assay [1], > 10 µM in assay [2] and > 10 µM in assay [3].
With `O=C(NCCCN1CCN(c2cccc(Cl)c2Cl)CC1)c1ccc2ccccc2c1`, the IC50 was 740 nM in assay [1], 0.26 µM in assay [2] and > 10 µM in assay [3].
In the case of `O=C(NCCCN1CCN(c2ncccn2)CC1)c1ccc2ccccc2c1`, the concentration for half-maximal inhibition (IC50) in assay [1] is > 10000 nM; in assay [2] it was > 10 µM; in assay [3], > 10 µM.
For `O=C(NCCCN1CCN(c2ccccc2)CC1)c1ccc2ccccc2n1`, the IC50 in assay [1] is > 10000 nM; in assay [2], > 10 µM.
With `Cc1ccc(N2CCN(CCCNC(=O)c3ccc4ccccc4c3)CC2)cc1`, the IC50 in assay [1] came to 460 nM; in assay [2] it was 2.69 µM.
Turning to `O=C(NCCCN1CCN(c2ccc(Cl)cc2)CC1)c1ccc2ccccc2n1`, the IC50 in assay [1] is 1320 nM; in assay [2] it was > 10 µM.
For the compound `O=C(NCCCN1CCN(c2cccc(Cl)c2Cl)CC1)c1ccc2ccccc2n1`, the IC50 was 1170 nM in assay [1], 2.55 µM in assay [2] and > 10 µM in assay [3].
For `COc1ccccc1N1CCN(CCCNC(=O)c2ccc3ccccc3n2)CC1`, the results for the IC50 in assay [1] and in assay [2] were > 10000 nM and > 10 µM, respectively.

One may read the IC50 as the concentration that gives 50% inhibition.
